According to ChEMBL document CHEMBL1146336, “The dicationic derivatives of DBTAA: Interactions with DNA/RNA and antiproliferative effects on human cell lines” (Bioorg Med Chem, 2007):

Assays:
[1] = tested on: MIA PaCa-2; assay: Effect on cell cycle in human MiaPaCa2 cells assessed as accumulation at G1/G0 phase at 5 uM after 48 hrs by […]; assay type: functional
[2] = tested on: MIA PaCa-2; assay: Effect on cell cycle in human MiaPaCa2 cells assessed as accumulation at G1/G0 phase at 5 uM after 24 hrs by […]; assay type: functional
[3] = tested on: HeLa; assay: Antiproliferative activity against human HeLa cells after 72 hrs by MTT assay; assay type: functional, cell-based
[4] = tested on: MIA PaCa-2; assay: Effect on cell cycle in human MiaPaCa2 cells assessed as accumulation at S phase at 5 uM after 48 hrs by […]; assay type: functional
[5] = Binding affinity to poly G-poly C 0.05 mol/dm^3 by UV/vis titration
[6] = tested on: MIA PaCa-2; assay: Effect on cell cycle in human MiaPaCa2 cells assessed as accumulation at sub-G1 phase at 5 uM after 24 hrs by […]; assay type: functional
[7] = tested on: SW-620; assay: Antiproliferative activity against human SW620 cells after 72 hrs by MTT assay; assay type: functional, cell-based; conditions: SW-620, 72 h
[8] = tested on: HEp-2; assay: Antiproliferative activity against human Hep2 cells after 72 hrs by MTT assay; assay type: functional, cell-based; conditions: HEp-2, 72 h
[9] = tested on: MIA PaCa-2; assay: Effect on cell cycle in human MiaPaCa2 cells assessed as accumulation at sub-G1 phase at 5 uM after 48 hrs by Annexin-V assay; assay type: functional
[10] = tested on: MIA PaCa-2; assay: Effect on cell cycle in human MiaPaCa2 cells assessed as accumulation at G2/M phase at 5 uM after 72 hrs by […]; assay type: functional
[11] = Binding affinity to poly dA-poly dT 0.15 mol/dm^3 by UV/vis titration
[12] = tested on: MIA PaCa-2; assay: Effect on cell cycle in human MiaPaCa2 cells assessed as accumulation at G2/M phase at 5 uM after 48 hrs by […]; assay type: functional
[13] = tested on: MIA PaCa-2; assay: Effect on cell cycle in human MiaPaCa2 cells assessed as accumulation at G2/M phase at 5 uM after 24 hrs by […]; assay type: functional
[14] = tested on: MIA PaCa-2; assay: Effect on cell cycle in human MiaPaCa2 cells assessed as accumulation at sub-G1 phase at 5 uM after 72 hrs by Annexin-V assay; assay type: functional
[15] = tested on: MIA PaCa-2; assay: Effect on cell cycle in human MiaPaCa2 cells assessed as accumulation at G1/G0 phase at 5 uM after 72 hrs by […]; assay type: functional
[16] = Binding affinity to poly A-poly U 0.15 mol/dm^3 by UV/vis titration
[17] = Binding affinity to poly dA-poly dT 0.05 mol/dm^3 by UV/vis titration
[18] = tested on: MCF7; assay: Antiproliferative activity against human MCF7 cells after 72 hrs by MTT assay; assay type: functional, cell-based; conditions: MCF7, 72 h
[19] = Binding affinity to poly A-poly U 0.05 mol/dm^3 by UV/vis titration
[20] = tested on: MIA PaCa-2; assay: Effect on cell cycle in human MiaPaCa2 cells assessed as accumulation at S phase at 5 uM after 72 hrs by […]; assay type: functional
[21] = Antiproliferative activity against human WI38 cells after 72 hrs by MTT assay; assay type: cell-based; conditions: WI-38, 72 h
[22] = tested on: MIA PaCa-2; assay: Effect on cell cycle in human MiaPaCa2 cells assessed as accumulation at S phase at 5 uM after 24 hrs by […]; assay type: functional
[23] = tested on: MIA PaCa-2; assay: Antiproliferative activity against human MiaPaCa2 cells after 72 hrs by MTT assay a; assay type: functional, cell-based; conditions: MIA PaCa-2, 72 h

| Structure (SMILES) | Activity [1] | Activity [2] | IC50 [3] | Activity [4] | log Ks [5] | Activity [6] | IC50 [7] | IC50 [8] | Activity [9] | Activity [10] | Activity [12] | Activity [13] | Activity [14] | Activity [15] | log Ks [17] | IC50 [18] | log Ks [19] | Activity [20] | IC50 [21] | IC50 [23] | other results |
| --- | --- | --- | --- | --- | --- | --- | --- | --- | --- | --- | --- | --- | --- | --- | --- | --- | --- | --- | --- | --- | --- |
| C1=C(CCC[n+]2ccccc2)\C=N\c2ccccc2N/C=C(CCC[n+]2ccccc2)\C=N\c2ccccc2N/1.[Br-].[Br-] | 65.59% | 47.56% | 2 µM | 17.538% | 4.2 | 9.2% | 18.5 µM | 11 µM | 11% | 10.7% | 16.38% | 24.054% | 40% | 58.34% | 6.1 | 6 µM | 5.19 | 31.03% | 10 µM | 1200 nM | log Ks [11]: 4.77; log Ks [16]: 5.4; Activity [22]: 28.4% |
| C[n+]1ccc(CCC(=O)OCCCC2=C/Nc3ccccc3/N=C/C(CCCOC(=O)CCc3cc[n+](C)cc3)=C\Nc3ccccc3\N=C\2)cc1.[Br-].[Br-] | 79.3% | 62.32% | 13.5 µM | 9.7% | 6.1 | 5.3% | 4 µM | 38 µM | 10% | 10.5% | 10.98% | 21.76% | 20% | 84.02% | 5.3 | 2.6 µM | 5.9 | 5.39% | 4 µM | 2600 nM | Activity [22]: 16.29% |
| C1=C(CCC[n+]2ccc(-c3ccncc3)cc2)\C=N\c2ccccc2N/C=C(CCC[n+]2ccc(-c3ccncc3)cc2)\C=N\c2ccccc2N/1 |  |  | > 100 µM |  |  |  | > 50 µM | > 100 µM |  |  |  |  |  |  |  | ≥ 100 µM |  |  | > 100 µM | > 100000 nM |  |
